US6346532B1, “Amide derivatives or salts thereof” (Yamanouchi Pharmaceutical Co., Ltd., priority 1997, dated 2002)
Counter-ions that a name gives are not always drawn.

melting point	SMILES
210 to 213 °C	Cl.O=C(Cc1n[nH]c(S)n1)Nc1ccc(CCNC[C@H](O)c2ccccc2)cc1
194 to 196 °C	Cl.O=C(Cc1ccccn1)Nc1ccc(CCNCC(O)c2ccccc2F)cc1 (stereo not drawn)
214 to 215 °C	Cl.O=C(Cc1ccccn1)Nc1ccc(CCNCC(O)c2cccc(F)c2)cc1 (stereo not drawn)
223 to 225 °C	Cl.O=C(Cc1ccccn1)Nc1ccc(CCNCC(O)c2ccc(F)cc2)cc1 (stereo not drawn)
234 to 235 °C	Cl.O=C(Cc1ccc2ccccc2n1)Nc1ccc(CCNC[C@H](O)c2ccccc2)cc1
221 to 222 °C	Cl.O=C(Cc1ccccn1)Nc1ccc(CCNC[C@H](O)c2cccc(Cl)c2)cc1
205 to 210 °C (dec.)	Cl.Cl.Nc1nc(C(=O)C(=O)Nc2ccc(CCNC[C@H](O)c3ccccc3)cc2)cs1
225 to 226 °C	Cl.O=C(Cc1ccccn1)Nc1ccc(OCCNC[C@H](O)c2ccccc2)cc1
132 to 133 °C	Cl.Cl.O=C(Nc1ccc(CCNC[C@H](O)c2ccccc2)cc1)Nc1ccccn1
244 to 246 °C	Cl.Cl.Nc1nc(CC(=O)Nc2ccc(CCNC[C@H](O)c3ccccc3)cc2)ns1
205 to 208 °C	CCOC(=O)Nc1nc(CC(=O)Nc2ccc(CCNC[C@H](O)c3ccccc3)cc2)ns1.Cl
248 to 251 °C	Cl.O=C(Cc1cccc(Cl)n1)Nc1ccc(CCNC[C@H](O)c2ccccc2)cc1
139 to 141 °C	Cl.Cl.O=C(Cc1cn(Cc2ccccc2)cn1)Nc1ccc(CCNC[C@H](O)c2ccccc2)cc1
140 to 143 °C	Cl.Cl.O=C(Cc1cn(Cc2ccccc2Cl)cn1)Nc1ccc(CCNC[C@H](O)c2ccccc2)cc1
263 to 265 °C	Cl.Cl.O=C(Nc1ccc(CCNC[C@H](O)c2ccccc2)cc1)c1cccnc1
140 to 143 °C	Cl.Cl.O=C(Cc1cn(Cc2cccc(Cl)c2)cn1)Nc1ccc(CCNC[C@H](O)c2ccccc2)cc1
230 to 235 °C	Cl.Cl.O=C(Cc1nccn1Cc1ccc(F)cc1)Nc1ccc(CCNC[C@H](O)c2ccccc2)cc1
221 to 223 °C	Cl.Cl.O=C(Cc1nccn1Cc1ccc(Br)cc1)Nc1ccc(CCNC[C@H](O)c2ccccc2)cc1
222 to 225 °C	Cl.Cl.O=C(Cc1nccn1Cc1ccc(I)cc1)Nc1ccc(CCNC[C@H](O)c2ccccc2)cc1

melting point	SMILES
197 to 203 °C	Cl.Cl.O=C(Cc1nccn1Cc1ccc(C(F)(F)F)cc1)Nc1ccc(CCNC[C@H](O)c2ccccc2)cc1
208 to 214 °C	Cl.Cl.O=C(Cc1nccn1-c1ccc2ccccc2c1)Nc1ccc(CCNC[C@H](O)c2ccccc2)cc1
219 to 223 °C	Cc1cnc(CC(=O)Nc2ccc(CCNC[C@H](O)c3ccccc3)cc2)n1Cc1ccc(F)cc1.Cl.Cl
204 to 207 °C	Cc1cn(Cc2ccc(F)cc2)c(CC(=O)Nc2ccc(CCNC[C@H](O)c3ccccc3)cc2)n1.Cl.Cl
225 to 228 °C	Cl.O=C(Cc1nnnn1Cc1ccc(F)cc1)Nc1ccc(CCNC[C@H](O)c2ccccc2)cc1
232 to 235 °C	Cl.O=C(CC1=NNN(Cc2ccc(Cl)c(Cl)c2)N1)Nc1ccc(CCNC[C@H](O)c2ccccc2)cc1
233 to 235 °C	Cl.O=C(CC1=NNN(Cc2ccc(F)cc2)N1)Nc1ccc(CCNC[C@H](O)c2ccccc2)cc1
221 to 224 °C	Cl.Cl.O=C(Cc1nc[nH]n1)Nc1ccc(CCNC[C@H](O)c2ccccc2)cc1
222 to 224 °C	Cl.Cl.O=C(Cc1n[nH]c(SCc2ccccc2)n1)Nc1ccc(CCNC[C@H](O)c2ccccc2)cc1
242 to 245 °C	CC(=O)Nc1nc(CC(=O)Nc2ccc(CCNC[C@H](O)c3ccccc3)cc2)cs1.Cl
252 to 256 °C	CS(=O)(=O)Nc1nc(CC(=O)Nc2ccc(CCNC[C@H](O)c3ccccc3)cc2)cs1.Cl
> 230 °C (dec.)	Cl.Cl.N=C(N)Nc1nc(CC(=O)Nc2ccc(CCNC[C@H](O)c3ccccc3)cc2)cs1
237 to 243 °C	Cl.O=C(Cc1nccn1Cc1ccc([N+](=O)[O-])cc1)Nc1ccc(CCNC[C@H](O)c2ccccc2)cc1
228 to 233 °C (dec.)	Cl.Cl.O=C(Cc1nc2ccccc2s1)Nc1ccc(CCNC[C@H](O)c2ccccc2)cc1
161 to 162 °C	Cl.Cl.O=C(Cc1csc2nccn12)Nc1ccc(CCNC[C@H](O)c2ccccc2)cc1
213 to 217 °C	Cl.Cl.O=C(Cc1nccn1Cc1c(F)ccc(F)c1F)Nc1ccc(CCNC[C@H](O)c2ccccc2)cc1
209 to 213 °C	Cl.Cl.O=C(Cc1nccn1Cc1cc(F)c(F)c(F)c1)Nc1ccc(CCNC[C@H](O)c2ccccc2)cc1
190 to 193 °C	Cl.Cl.O=C(Cc1nccn1Cc1c(F)c(F)c(F)c(F)c1F)Nc1ccc(CCNC[C@H](O)c2ccccc2)cc1
233 to 234 °C	Cl.Cl.O=C(Cc1nccn1Cc1cccc(I)c1)Nc1ccc(CCNC[C@H](O)c2ccccc2)cc1

melting point	SMILES
162 to 165 °C	Cl.Cl.Cl.O=C(Cc1nccn1-c1ccc2ccccc2n1)Nc1ccc(CCNC[C@H](O)c2ccccc2)cc1
203 to 207 °C	Cl.Cl.O=C(Cc1ncc[nH]1)Nc1ccc(CCNC[C@H](O)c2ccccc2)cc1
229 to 232 °C	Cl.O=C(Cn1cccn1)Nc1ccc(CCNC[C@H](O)c2ccccc2)cc1
237 to 240 °C	Cl.Cl.O=C(Cn1cncn1)Nc1ccc(CCNC[C@H](O)c2ccccc2)cc1
236 to 238 °C	Cl.O=C(Cc1cccnc1)Nc1ccc(CCNC[C@H](O)c2ccccc2)cc1
195 to 198 °C	Cl.O=C(Cc1ccncc1)Nc1ccc(CCNC[C@H](O)c2ccccc2)cc1
202 to 204 °C	Cl.O=C(CCc1ccccn1)Nc1ccc(CCNC[C@H](O)c2ccccc2)cc1
259 to 261 °C	Cl.O=C(Cc1nnn[nH]1)Nc1ccc(CCNC[C@H](O)c2ccccc2)cc1
216 to 217 °C	Cc1cccnc1CC(=O)Nc1ccc(CCNC[C@H](O)c2ccccc2)cc1.Cl
223 to 225 °C	O=C(Nc1ccc(CCNCC(O)c2ccccc2)cc1)c1ccccn1 (stereo not drawn) (as salt: hydrochloride)
240 to 242 °C	O=C(Cc1nnnn1Cc1ccc(Cl)c(Cl)c1)Nc1ccc(CCNCC(O)c2ccccc2)cc1 (stereo not drawn) (as salt: hydrochloride)
150 to 152 °C	Nc1cccc(CC(=O)Nc2ccc(CCNCC(O)c3ccccc3)cc2)n1 (stereo not drawn) (as salt: hydrochloride)
223 to 224 °C	O=C(Cc1ccccn1)Nc1ccc(CCNCC(O)c2ccccc2)cc1 (stereo not drawn) (as salt: hydrochloride)
236 to 238 °C	O=C(Cc1cnccn1)Nc1ccc(CCNCC(O)c2ccccc2)cc1 (stereo not drawn) (as salt: hydrochloride)
203 to 209 °C	O=C(Cc1nccn1Cc1ccc(Cl)cc1)Nc1ccc(CCNC[C@H](O)c2ccccc2)cc1 (as salt: hydrochloride) [Example 23, (R)-2-[1-(4-Chlorobenzyl)-1H-imidazol-2-yl]-4′-[2-[(2-hydroxy-2-phenylethyl)amino]ethyl]acetanilide dihydrochloride]
208 to 210 °C	O=C(Cc1ncccn1)Nc1ccc(CCNC[C@H](O)c2ccccc2)cc1 (as salt: hydrochloride) [Example 104, (R)-4′-[2-[(2-hydroxy-2-phenylethyl)amino]ethyl]-2-(2-pyrimidinyl]acetanilide hydrochloride]
237 to 238 °C	Cl.O=C(Cc1cccc(OCc2ccccc2)n1)Nc1ccc(CCNC[C@H](O)c2ccccc2)cc1 [16]
214 to 216 °C	Cl.O=C(Cc1cccc(OCc2ccccc2)n1)Nc1ccc(CCNC[C@H](O)c2ccccc2)cc1 [60]
158 to 165 °C	O=C(Cc1nc2ccccc2[nH]1)Nc1ccc(CCNC[C@H](O)c2ccccc2)cc1 [Example 91, (R)-2-(1H-benzimidazol-2-yl)-4′-[2-[(2-hydroxy-2-phenylethyl)amino]-ethyl]acetanilide]
